Drawing on the SangsterLogP compilation, this text covers logP and logD for 22 compounds.

Structures are written as SMILES. *1 amine or outer side, *2 acyl side, *3 side chain or, on linkers, in order; H or OH if unused. Positions of bridges follow the written chain, without caps; N, C: chain ends. Where a SMILES comes first, the peptide text is derived from it. Residues, ends and D or L forms follow the SMILES beside them. [ ]: non-standard residue; d: D form. The star is where a group is joined. X1 = CC(C)C[C@H](N[*:1])[C@@H](O)C[C@H](C(=O)[*:2])C(C)C; NMeH = CN[C@@H](Cc1c[nH]cn1)C(=O)O; NHCH2(2-pyridyl) = c1ccc(CN*)nc1; Boc = CC(C)(C)OC(=O)*

The logP is a log measure of how a compound divides between an organic and an aqueous phase. The low end stands for a more hydrophilic compound, the high end for a more lipophilic compound. One may read the logD as lipophilicity at a set pH, counting ionised and neutral species. A low value points to lower lipophilicity.

Experiment in series [1]: not given
This is another data set of the same source.

Experiment in series [2]: not given
The source holds these as a separate data set.

Experiment in series [3]: not given
The source holds these as a separate data set.

Experiment in series [4]: not given
The source holds these as a separate data set.

Experiment in series [5]: not given
The source holds these as a separate data set.

Series [6] in a line: method code SF, from DOI: 10.1021/jm00079a001, PMID: 1732531. The settings on record: pH 7.4.
Series [7] in a line: method code SF-RC, from PMID: 3346819. The settings on record: pH 7.4.
Experiment in series [8]: not given
This is another data set of the same source.

The nature of series [9]: method code SF-AS, from DOI: 10.1021/jm0401006, PMID: 15481980. The settings on record: pH 7.4.
Experiment in series [10]: not given
This is another data set of the same source.

Series [11] is described as follows: method code SF-AS, from DOI: 10.1562/0031-8655(2003)0780411sacotn2.0.co2, PMID: 14626671. The settings on record: pH 6.8.
The nature of series [12]: method code SF, from Moerlein, M.; Dischino, D.; Raymond, N.; Weitl, L.; Welch, J. (1982). Factors affecting the cerebral uptake of gallium complexes. J Labelled Comp Radiopharm, 19(11-12)1421-1422. The conditions noted are these: pH 7.0.
Series [13] in a line: method code AS, from DOI: 10.1081/jlc-120022394.
Series [14] in a line: method code SF-RC, from DOI: 10.1002/jps.2600770619, PMID: 3171939. The conditions noted are these: pH 2.0.
A short description of series [15]: method code SF-RC, from DOI: 10.1002/jps.2600730807, PMID: 6491907.
The conditions of series [16]: pH 7.4.
Experiment in series [17]: not given
The source holds these as a separate data set.

Experiment in series [18]: not given
This is another data set of the same source.

Experiment in series [19]: not given
This is another data set of the same source.

Experiment in series [20]: not given
The source holds these as a separate data set.

Series [21] in a line: method code SF-AS, from DOI: 10.1016/s0960-894x(99)00527-2, PMID: 10571171. The settings on record: pH 7.0.

For the compound `CCn1c(=O)c2c(nc(C=Cc3ccc(C(=O)OCCOCCOCCOCCOCCOCCOCCOCCOCCOC)c(OC)c3)n2C)n(CC)c1=O`, the logP came to 2.8.
In turn, `Cc1ccccc1Nc1nc2ccc(C(=O)NC(CCCCNC(=O)C=Cc3cccnc3)C(=O)NC(CCCC(=O)O)C(=O)NC3(C(N)=O)CCCCC3)cc2[nH]1` (configuration not stated) showed a log partition coefficient (logP) in [1] of 1.88.
For `COc1ccc(C2(O)OC(=O)C(c3ccc4c(c3)OCO4)=C2Cc2cc(OC)c(OC)c(OCCOCCOCCOCCOCc3cn(C4OC(CO)C(O)C(O)C4F)nn3)c2)cc1` (configuration not stated), the logP in series [2] was -0.4.
`CC[C@H](C)[C@H](NC(=O)[C@@H](C[C@H](O)[C@H](CC(C)C)NC(=O)[C@H](Cc1cnc[nH]1)N(C)C(=O)[C@H](Cc1ccccc1)NC(=O)[C@@H]1CCCN1C(=O)OC(C)(C)C)C(C)C)C(=O)NCc1ccccn1` (Boc-PF[NMeH][X1]I-{NHCH2(2-pyridyl)}) had a logP in [3] of 4.2.
The compound `COC(=O)[C@H](Cc1ccccc1)NC(=O)[C@H](Cc1ccccc1)NC(=O)[C@@H](NC(=O)[C@H](CC(C)C)NC(=O)[C@H](CCCCNC(=O)OCc1ccccc1)NC(=O)OC(C)(C)C)C(C)C` came in with a lipophilicity (logP) in [4] of 7.62.
Take `COc1cc(CN2C(=O)N(Cc3cccc(C(=O)Nc4cnc(C)cn4)c3)C(Cc3ccccc3)C(O)C(O)C2Cc2ccccc2)cc(OC)c1` (configuration not stated): the logP in series [5] turned out to be 5.59.
In series [6], `C=CCC(NC(=O)C(Cc1ccccc1)NS(=O)(=O)N1CCOCC1)C(=O)NC(CC1CCCCC1)C(=O)C(F)(F)C(=O)NCC(C)CC` (configuration not stated) came in with a logD of 4.63.
Compound `CC(CNC(=O)c1ccccc1)C(=O)OCC(=O)C12OC(C)(C)OC1CC1C3CCC4=CC(=O)C=CC4(C)C3(F)C(O)CC12C` (configuration not stated) yielded a pH-dependent lipophilicity (logD) in series [7] of 2.3.
For the compound `CCCC(=O)O[C@H]1[C@H](C)O[C@@H](O[C@H]2[C@H](N(C)C)[C@@H](O)[C@H](O[C@H]3[C@@H](CC=O)C[C@@H](C)[C@@H](O)/C=C/C=C/C[C@@H](C)OC(=O)C[C@@H](O)[C@@H]3OC)O[C@@H]2C)C[C@@]1(C)OC(=O)CC`, the lipophilicity (logP) in series [8] worked out at 3.08.
As for `CCOC(=O)c1cnc2c(c(C)nn2C)c1Nc1ccc(OC(C)=O)cc1`, in series [9], the logD came to 1.67.
Compound `CC(C)(C)NC(=O)[C@@H]1C[C@@H]2CCCC[C@@H]2CN1C[C@@H](O)[C@H](Cc1ccccc1)NC(=O)[C@H](CC(N)=O)NC(=O)c1ccc2ccccc2n1` showed a logP in [10] of 3.
In the case of `COc1c(O)c2c(=O)cc(OC)c3c4c(OC)cc(=O)c5c(O)c(NCCN6CCOCC6)c6c(c(c1C(C(C)=O)=C(C)C6)c23)c54`, the logD in series [11] was determined as 1.15.
For the compound `CCCCCCCCN(CCCCN(CCCN(CCCCCCCC)C(=O)c1cccc(O)c1O)C(=O)c1cccc(O)c1O)C(=O)c1cccc(O)c1O`, the pH-dependent lipophilicity (logD) in [12] worked out at 0.51.
Consider `CCOC(=O)C(=Cc1ccc(Cl)cc1)NC=O`, for which the log partition coefficient (logP) in series [13] stood at 2.65.
The compound `CC1(C)C(OC(=O)CCC(=O)O)CC[C@@]2(C)[C@H]1CC[C@]1(C)[C@H]2C(=O)C=C2[C@@H]3C[C@@](C)(C(=O)O)CC[C@]3(C)CC[C@]21C` (some centres not stated) gave a pH-dependent lipophilicity (logD) in series [14] of 2.81.
Compound `CC1OC(OC2C(O)CC(OC3C(O)CC(OC4CCC5(C)C(CCC6C5CC(O)C5(C)C(C7COC(=O)C7)CCC65O)C4)OC3C)OC2C)CC(O)C1O` (configuration not stated) displayed a log partition coefficient (logP) in series [15] of 1.25.
Turning to `CCN1CC(C(O)C(CC2CCCCC2)NC(=O)C(Cc2cscn2)NC(=O)C(CC(=O)N2CCOCC2)Cc2ccccc2)OC1=O` (configuration not stated), the logD in series [16] turned out to be 2.83.
In [17], `CO[C@H]1C=CO[C@@]2(C)Oc3c(C)c(O)c4c(c3C2=O)C(=O)/C(=C/NN2CCN(C3CCCC3)CC2)C(=C4O)NC(=O)/C(C)=C\C=C/[C@H](C)[C@H](O)[C@@H](C)[C@@H](O)[C@H](C)[C@H](OC(C)=O)[C@H]1C` yielded a logP of 1.24.
Regarding `C=CC[C@@H]1/C=C(\C)C[C@H](C)C[C@H](OC)[C@H]2O[C@@](O)(C(=O)C(=O)N3CCCC[C@H]3C(=O)O[C@H](/C(C)=C/[C@@H]3CC[C@@H](O)[C@H](OC)C3)[C@H](C)[C@@H](O)CC1=O)[C@H](C)C[C@@H]2OC`, the logP in series [18] came out at 3.3.
`CC[C@H](C)[C@@H]1NC(=O)[C@H](Cc2ccc(O)cc2)NC(=O)[C@@H](N)CSSC[C@@H](C(=O)N2CCC[C@H]2C(=O)N[C@@H](CCCN=C(N)N)C(=O)NCC(N)=O)NC(=O)[C@H](CC(N)=O)NC(=O)[C@H](CCC(N)=O)NC1=O` (H-CYIQNCPRG-NH2; disulfide 1-6): the logP in [19] is -1.62.
In the case of `CCC(C(=O)OCc1ccc(COC(=O)C(CC)C(COC(=O)c2ccccc2)Cc2cncn2C)cc1)C(COC(=O)c1ccccc1)Cc1cncn1C` (configuration not stated), in series [20], the logP is 6.37.
For the compound `O=C(NCCN(CCNC(=O)c1ccc2cccnc2c1O)CCNC(=O)c1ccc2cccnc2c1O)c1ccc2cccnc2c1O`, in [21], the log distribution coefficient (logD) was determined as 1.
